In PubChem BioAssay AID330 (DTP/NCI, 2004):
Several values for one entry are separate records, joined by “and”; a condition that tells them apart may be missing. Equal values may be shown once. Inconclusive results and toxic doses are left out.

System: P388 leukemia ip, CD2F1 mice, survival T/C
Assay: NCI In Vivo Anticancer Drug Screen. Data for tumor model P388 Leukemia (intraperitoneal) in CD2F1 (CDF1) mice
Conditions: endpoint: median survival time, higher = longer survival
Outline: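 Mice carrying the transplanted tumor received test compound or vehicle. Survival was recorded in each group, and the value is the treated-group measurement divided by that of the vehicle-treated control group.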

[1] = dose: 60.0 mg/kg/injection, schedule: Q01DX005 (ip), vehicle: saline with Tween-80
[2] = dose: 120.0 mg/kg/injection, schedule: Q01DX005 (ip), vehicle: saline with Tween-80
[3] = dose: 240.0 mg/kg/injection, schedule: Q01DX005 (ip), vehicle: saline with Tween-80
[4] = dose: 50.0 mg/kg/injection, schedule: Q01DX009 (ip), vehicle: saline
[5] = dose: 100.0 mg/kg/injection, schedule: Q01DX009 (ip), vehicle: saline
[6] = dose: 200.0 mg/kg/injection, schedule: Q01DX009 (ip), vehicle: saline

NCCCNCCCCNC(=O)C(O)NC(=O)CCCCCCN=C(N)N (stereo unspecified)
T/C (dose: 4.4 mg/kg/injection, schedule: Q01DX009 (ip), vehicle: other): 193 % of control and 195 % of control and 198 % of control | T/C (dose: 4.4 mg/kg/injection, schedule: Q01DX009 (ip), vehicle: saline): 193 % of control and 194 % of control and 200 % of control | T/C (dose: 4.5 mg/kg/injection, schedule: Q01DX009 (ip), vehicle: other): 193 % of control | T/C (dose: 4.5 mg/kg/injection, schedule: Q01DX009 (ip), vehicle: saline): 188 % of control and 196 % of control | T/C (dose: 6.25 mg/kg/injection, schedule: Q01DX005 (ip), vehicle: saline): 159 % of control | T/C (dose: 12.5 mg/kg/injection, schedule: Q01DX005 (ip), vehicle: saline): 165 % of control and 172 % of control | T/C (dose: 34.0 mg/kg/injection, schedule: Q01DX009 (ip), vehicle: saline): 205 % of control

Oc1cc2c(cc1C(c1ccc(F)cc1)N1CCCCC1)OCO2 (stereo unspecified)
T/C [1]: 111 % of control | T/C [2]: 116 % of control | T/C [3]: 115 % of control

CN(C)S(=O)(=O)CC(O)C(Cl)(Cl)Cl (stereo unspecified)
T/C [4]: 100 % of control | T/C [5]: 98 % of control | T/C [6]: 98 % of control

C1=C2CCc3ccc(o3)CCC(=C1)O2
T/C (dose: 50.0 mg/kg/injection, schedule: Q01DX005 (ip), vehicle: saline with Tween-80): 100 % of control | T/C (dose: 100.0 mg/kg/injection, schedule: Q01DX005 (ip), vehicle: saline with Tween-80): 94 % of control | T/C (dose: 200.0 mg/kg/injection, schedule: Q01DX005 (ip), vehicle: saline with Tween-80): 93 % of control

[NH-]CC[NH-].[NH-]CC[NH-].[NH-]CC[NH-].[Ni]
T/C (dose: 6.25 mg/kg/injection, schedule: Q01DX009 (ip), vehicle: saline): 90 % of control | T/C (dose: 12.5 mg/kg/injection, schedule: Q01DX009 (ip), vehicle: saline): 90 % of control

C1CNNCCNN1
T/C [4]: 112 % of control | T/C [5]: 106 % of control and 108 % of control and 90 % of control | T/C [6]: 109 % of control and 115 % of control and 89 % of control | T/C (dose: 400.0 mg/kg/injection, schedule: Q01DX009 (ip), vehicle: saline): 112 % of control and 120 % of control and 93 % of control | T/C (dose: 800.0 mg/kg/injection, schedule: Q01DX009 (ip), vehicle: saline): 121 % of control

NN1CCCC1
T/C (dose: 100.0 mg/kg/injection, schedule: Q04DX003 (ip), vehicle: saline): 90 % of control | T/C (dose: 200.0 mg/kg/injection, schedule: Q04DX003 (ip), vehicle: saline): 95 % of control

CCN1Cc2c(/C=C/c3ccccc3)nc3ccc(OC)cc3c2N(c2cccc(Cl)c2)C1
T/C (dose: 25.0 mg/kg/injection, schedule: Q01DX009 (ip), vehicle: Klucel (hydroxypropylcellulose) (HPC)): 103 % of control | T/C (dose: 50.0 mg/kg/injection, schedule: Q01DX009 (ip), vehicle: Klucel (hydroxypropylcellulose) (HPC)): 94 % of control | T/C (dose: 100.0 mg/kg/injection, schedule: Q01DX009 (ip), vehicle: Klucel (hydroxypropylcellulose) (HPC)): 102 % of control | T/C (dose: 200.0 mg/kg/injection, schedule: Q01DX009 (ip), vehicle: Klucel (hydroxypropylcellulose) (HPC)): 98 % of control

CC1CN1S(=O)(=O)N1CC1C (stereo unspecified)
T/C (dose: 11.0 mg/kg/injection, schedule: Q04DX003 (ip), vehicle: saline with Tween-80): 110 % of control | T/C (dose: 16.5 mg/kg/injection, schedule: Q04DX003 (ip), vehicle: saline with Tween-80): 155 % of control | T/C (dose: 20.0 mg/kg/injection, schedule: Q01DX009 (ip), vehicle: saline with Tween-80): 209 % of control | T/C (dose: 25.0 mg/kg/injection, schedule: Q04DX003 (ip), vehicle: saline with Tween-80): 195 % of control | T/C (dose: 37.5 mg/kg/injection, schedule: Q04DX003 (ip), vehicle: saline with Tween-80): 270 % of control | T/C (dose: 40.0 mg/kg/injection, schedule: Q01DX009 (ip), vehicle: saline with Tween-80): 172 % of control

COc1cc(C2SCC(=O)N2c2nncs2)c([N+](=O)[O-])cc1OC (stereo unspecified)
T/C (dose: 50.0 mg/kg/injection, schedule: Q01DX005 (ip), vehicle: Klucel (hydroxypropylcellulose) (HPC)): 91 % of control | T/C (dose: 100.0 mg/kg/injection, schedule: Q01DX005 (ip), vehicle: Klucel (hydroxypropylcellulose) (HPC)): 91 % of control | T/C (dose: 200.0 mg/kg/injection, schedule: Q01DX005 (ip), vehicle: Klucel (hydroxypropylcellulose) (HPC)): 89 % of control

COc1cc2c(CCNC(C)=O)csc2cc1Cl
T/C [1]: 97 % of control | T/C [2]: 99 % of control | T/C [3]: 105 % of control
